Experimental data reported in patent US20250295609A1, “COMPOUND HAVING ANTI-ANDROGEN RECEPTOR ACTIVITY, AND USE THEREOF” (NANJING MINOVA PHARMACEUTICAL CO., LTD., priority 2022, published 2025).

Test system: human prostate cancer cells 22Rvl
Assay: Cell viability inhibition assay (CTG) on 22Rvl cells
Assay type: cell-based
Details: 120 h, no DHT, 5 days, read-out: Inhibitory activity against human prostate cancer cells 22Rvl IC50
Source text: Human prostate cancer cells LNCaP and human prostate cancer cells 22Rvl are present in patients with prostate cancer. An androgen, DHT, is able to promote the growth of human prostate cancer cells LNCaP. Using the cell model described above was intended to study the inhibitory effects of the compounds of the present disclosure on the growth of human prostate cancer cells (human prostate cancer cells LNCaP and human prostate cancer cells 22Rvl) in the presence or absence of DHT. […]
The medium in the culture dish was discarded, and 5 mL of trypsin was added for digestion for about 3 mins. […] 1 mL of the cells was taken and counted, and the cell viability was detected. […]
After the cells were attached to the well, for the human prostate cancer cells LNCaP group, test compounds (0.1 μM, 0.3 μM, 1 μM, 3 μM, 10 μM, and 30 μM) and DHT (1 nM, inducing the expression of AR) were added to the 96-well plate, and the plate was incubated for another 5 days; for the human prostate cancer cells 22Rvl group, test compounds (0.1 μM, 0.3 μM, 1 μM, 3 μM, 10 μM, and 30 μM) were added to the 96-well plate, and the plate was incubated for another 5 days. […] The cell viability was detected by using a CTG method. […] The fluorescence value in each well was then detected. […] For data analysis, an assay background value was subtracted from all data points, which was determined in wells containing the medium but no cells. […]

IC50: 0.35 µM
Structure (SMILES): COc1ccc(/C=C/C(=O)C2(C(=O)/C=C/c3ccc(OC)c(OC)c3)CCC(F)(F)CC2)cc1OC [Compound 8]
